Calls of active or inactive are those of the source. The rule behind the calls is not given here.
Assays:
MDA-MB-231 = test: Cytotoxicity against human MDA-MB-231 cells assessed as reduction in cell viability incubated for 3 days by methylene blue staining based spectrophotometric analysis; type: functional; details: MDA-MB-231, 72 h, time 3 day
NCI-H522 [1] = test: Induction of ferroptosis in human NCI-H522 cells assessed as cell viability at 6.93 uM incubated for 3 days in presence of liproxstatin-1 by methylene blue staining based spectrophotometric analysis relative to control; type: functional; details: NCI-H522, 72 h, time 3 day, read-out: Activity
NCI-H522 [2] = test: Cytotoxicity against human NCI-H522 cells assessed as reduction in cell viability incubated for 3 days by methylene blue staining based spectrophotometric analysis; type: functional; details: NCI-H522, 72 h, time 3 day
NCI-H522 [3] = test: Induction of ferroptosis in human NCI-H522 cells assessed as reduction in cell viability at 6.93 uM incubated for 3 days in presence of liproxstatin-1 by methylene blue staining based spectrophotometric analysis; type: functional; details: time 3.0 day
[4] = Drug localization in human HeLa cell nucleus incubated for 1 hr by TAMRA/Hoechst dye based fluorescent live cell imaging analysis; type: ADME, subcellular
HT-1080 [5] = test: Cytotoxicity against human HT-1080 cells assessed as reduction in cell viability incubated for 3 days by methylene blue staining based spectrophotometric analysis; type: functional; details: HT-1080, 72 h, time 3 day
[6] = Drug localization in human HeLa cell vacuole incubated for 1 hr by TAMRA/Hoechst dye based fluorescent live cell imaging analysis; type: ADME, subcellular
NCI-H522 [7] = test: Induction of ferroptosis in human NCI-H522 cells assessed as cell death at 0.51 uM incubated for 3 days by methylene blue staining based spectrophotometric analysis relative to control; type: functional; details: time 3 day
NCI-H522 [8] = test: Induction of ferroptosis in human NCI-H522 cells incubated for 3 days in presence of liproxstatin-1 by methylene blue staining based spectrophotometric analysis; type: functional, cell-based; details: time 3.0 day
HL-60 = test: Cytotoxicity against human HL-60 cells assessed as reduction in cell growth at 10 uM; type: functional, cell-based
CCRF-CEM = test: Cytotoxicity against human CCRF-CEM cells assessed as reduction in cell growth at 10 uM; type: functional, cell-based
CAKI-1 = test: Cytotoxicity against human CAKI-1 cells assessed as reduction in cell growth at 10 uM; type: functional, cell-based
[9] = target: Glucose-6-phosphate 1-dehydrogenase (Homo sapiens) (UniProt P11413); test: Inhibition of G6PD in human HCT-116 cells using G6P as substrate at 100 uM incubated for 20 mins followed by G6P and […]; type: cell-based
Glucose-6-phosphate 1-dehydrogenase (Homo sapiens), sequence (P11413 whole entry): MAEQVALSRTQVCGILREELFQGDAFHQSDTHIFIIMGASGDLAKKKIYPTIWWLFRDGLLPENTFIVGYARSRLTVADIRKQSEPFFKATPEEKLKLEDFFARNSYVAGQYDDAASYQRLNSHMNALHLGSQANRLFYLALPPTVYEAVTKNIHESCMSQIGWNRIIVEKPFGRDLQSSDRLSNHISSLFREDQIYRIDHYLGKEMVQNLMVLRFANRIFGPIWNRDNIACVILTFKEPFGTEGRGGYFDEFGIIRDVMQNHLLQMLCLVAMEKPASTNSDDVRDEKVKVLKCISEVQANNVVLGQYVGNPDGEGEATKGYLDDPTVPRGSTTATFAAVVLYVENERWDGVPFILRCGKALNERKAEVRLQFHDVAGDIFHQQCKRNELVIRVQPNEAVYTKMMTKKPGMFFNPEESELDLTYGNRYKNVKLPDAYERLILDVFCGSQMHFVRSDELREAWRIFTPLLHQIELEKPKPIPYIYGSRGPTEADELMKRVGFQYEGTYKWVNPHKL

NCI-H522 [10] = test: Cytotoxicity against human NCI-H522 cells overexpressing GFP-tagged RV assessed as reduction in cell viability incubated for 3 days by methylene blue staining based spectrophotometric analysis; type: functional; details: NCI-H522, 72 h, time 3 day
786-0 [11] = test: Cytotoxicity against human 786-0 cells assessed as reduction in cell growth at 10 uM; type: functional, cell-based
WI-38 = test: Cytotoxicity against human WI-38 cells assessed as reduction in cell viability at 1 uM incubated for 3 days by methylene blue staining based spectrophotometric analysis; type: toxicity; details: wi-38, 72 h, time 3 day
HT-1080 [12] = test: Cytotoxicity against human HT-1080 cells assessed as reduction in cell viability at 1 uM incubated for 3 days by methylene blue staining based spectrophotometric analysis; type: functional; details: time 3.0 day
NCI-H522 [13] = test: Induction of cell death in human NCI-H522 cells at 10 uM incubated for 3 to 4 hrs by live cell imaging analysis relative to control; type: functional; details: time 3-4 hrs
OVCAR-4 = test: Cytotoxicity against human OVCAR-4 cells assessed as reduction in cell growth at 10 uM; type: functional, cell-based
OVCAR-8 = test: Cytotoxicity against human OVCAR-8 cells assessed as reduction in cell growth at 10 uM; type: functional, cell-based
OVCAR-5 = test: Cytotoxicity against human OVCAR-5 cells assessed as reduction in cell growth at 10 uM; type: functional, cell-based
OVCAR-3 = test: Cytotoxicity against human OVCAR-3 cells assessed as reduction in cell growth at 10 uM; type: functional, cell-based
NCI-H522 [14] = test: Cytotoxicity against human NCI-H522 cells overexpressing GFP-tagged SLC7A11 assessed as reduction in cell viability incubated for 3 days by methylene blue staining based spectrophotometric analysis; type: functional; details: NCI-H522, 72 h, time 3 day
NCI-H522 [15] = test: Cytotoxicity against human NCI-H522 cells assessed as reduction in cell viability at 1 uM incubated for 3 days by methylene blue staining based spectrophotometric analysis; type: functional; details: time 3.0 day
TK-10 = test: Cytotoxicity against human TK-10 cells assessed as reduction in cell growth at 10 uM; type: functional, cell-based
SR = test: Cytotoxicity against human SR cells assessed as reduction in cell growth at 10 uM; type: functional, cell-based
U2OS = test: Cytotoxicity against human U2OS cells assessed as reduction in cell viability incubated for 3 days by methylene blue staining based spectrophotometric analysis; type: functional; details: 72 h, time 3 day
UO-31 [16] = test: Cytotoxicity against human UO-31 cells assessed as reduction in cell growth by measuring cell viability at 10 uM relative to control; type: functional
K562 = test: Cytotoxicity against human K562 cells assessed as reduction in cell growth at 10 uM; type: functional, cell-based
RPMI-8226 = test: Cytotoxicity against human RPMI-8226 cells assessed as reduction in cell growth at 10 uM; type: functional, cell-based
[17] = target: Glucose-6-phosphate 1-dehydrogenase (Homo sapiens) (UniProt P11413); test: Inhibition of G6PD in human HCT-116 cells using G6P as substrate assessed as reduction in enzyme activity by measuring absorbance at 100 uM incubated for 20 mins followed by G6P and […]; type: cell-based
NCI/ADR-RES = test: Cytotoxicity against human NCI-ADR-RES cells assessed as reduction in cell growth at 10 uM; type: functional, cell-based
SN12C = test: Cytotoxicity against human SN12C cells assessed as reduction in cell growth at 10 uM; type: functional, cell-based
786-0 [18] = test: Cytotoxicity against human 786-0 cells assessed as reduction in cell growth by measuring cell viability at 10 uM relative to control; type: functional
ACHN = test: Cytotoxicity against human ACHN cells assessed as reduction in cell growth at 10 uM; type: functional, cell-based
SK-OV-3 = test: Cytotoxicity against human SK-OV-3 cells assessed as reduction in cell growth at 10 uM; type: functional, cell-based
MEF = test: Cytotoxicity against mouse MEF cells assessed as reduction in cell viability at 1 uM incubated for 3 days by methylene blue staining based spectrophotometric analysis; type: toxicity; details: 72 h, time 3 day
UO-31 [19] = test: Cytotoxicity against human UO-31 cells assessed as reduction in cell growth at 10 uM; type: functional, cell-based
RXF 393 = test: Cytotoxicity against human RXF 393 cells assessed as reduction in cell growth at 10 uM; type: functional, cell-based
MOLT-4 = test: Cytotoxicity against human MOLT-4 cells assessed as reduction in cell growth at 10 uM; type: functional, cell-based
IGROV-1 = test: Cytotoxicity against human IGROV-1 cells assessed as reduction in cell growth by measuring cell viability at 10 uM relative to control; type: functional
NCI-H522 [20] = test: Induction of ferroptosis in human NCI-H522 cells assessed as increase in intracellular lipid peroxidation accumulation at 0.51 uM incubated for 6 hrs by C11 BODIPY 581/591 staining based flow cytometry; type: functional, cell-based
NCI-H522 [21] = test: Induction of ferroptosis in human NCI-H522 cells assessed as cell viability incubated for 3 days in presence of liproxstatin-1 by methylene blue staining based spectrophotometric analysis relative to control; type: functional; details: time 3 day
[22] = target: T1, Peroxiredoxin-4 (Homo sapiens) (UniProt Q13162); test: Inhibition of PRDX4 (unknown origin)
T1 sequence (whole entry): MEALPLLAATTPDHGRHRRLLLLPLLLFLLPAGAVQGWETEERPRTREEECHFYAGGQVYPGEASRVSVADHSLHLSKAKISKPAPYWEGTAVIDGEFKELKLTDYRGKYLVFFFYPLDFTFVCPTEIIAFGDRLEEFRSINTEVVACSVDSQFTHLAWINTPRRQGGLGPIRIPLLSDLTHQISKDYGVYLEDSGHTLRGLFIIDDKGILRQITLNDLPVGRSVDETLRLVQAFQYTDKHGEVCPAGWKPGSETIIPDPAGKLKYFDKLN

[23] = target: Phospholipid hydroperoxide glutathione peroxidase GPX4 (Homo sapiens) (UniProt P36969); test: Inhibition of recombinant GPX4 (unknown origin) at 100 uM incubated for 60 mins followed by NADPH addition
Phospholipid hydroperoxide glutathione peroxidase GPX4 (Homo sapiens), sequence (P36969 whole entry): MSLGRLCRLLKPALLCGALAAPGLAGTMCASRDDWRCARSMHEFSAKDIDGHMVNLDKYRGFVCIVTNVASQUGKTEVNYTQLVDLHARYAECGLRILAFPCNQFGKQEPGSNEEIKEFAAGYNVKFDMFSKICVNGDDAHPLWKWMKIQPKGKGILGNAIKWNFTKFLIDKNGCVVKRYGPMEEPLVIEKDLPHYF

NCI-H522 [24] = test: Induction of ferroptosis in human NCI-H522 cells assessed as reduction in cell viability at 7.8 uM incubated for 3 days in presence of liproxstatin-1 by methylene blue staining based spectrophotometric analysis; type: functional; details: time 3.0 day
NCI-H522 [25] = test: Induction of ferroptosis in human NCI-H522 cells assessed as cell viability at 7.8 uM incubated for 3 days in presence of liproxstatin-1 by methylene blue staining based spectrophotometric analysis relative to control; type: functional; details: NCI-H522, 72 h, time 3 day, read-out: Activity

C#CCO/N=C1\CC(c2csc(C#C)n2)=C(C)C1O (stereo not drawn)
CC50 (MDA-MB-231): 2700 nM
viability at 6.93 µM (NCI-H522 [1]): 75%
CC50 (NCI-H522 [2]): 2310 nM
Activity (NCI-H522 [3]): inactive
Drug uptake [4]: Active
CC50 (HT-1080 [5]): 1170 nM
Drug uptake [6]: Active

C#Cc1nc(C2=C(C)C(OC(C)=O)/C(=N/OC(C)=O)C2)cs1 (stereo not drawn)
Activity (NCI-H522 [7]): ~60%
Activity (NCI-H522 [8]): Active
Activity (HL-60): inactive
Activity (CCRF-CEM): inactive
Activity (CAKI-1): inactive
inhibition [9]: Active
CC50 (NCI-H522 [10]): 260 nM
Activity (786-0 [11]): inactive
Activity (WI-38): Toxic
Activity (HT-1080 [12]): Active
Activity (NCI-H522 [13]): 50%
Activity (OVCAR-4): inactive
Activity (OVCAR-8): inactive
Activity (OVCAR-5): inactive
Activity (OVCAR-3): inactive
CC50 (NCI-H522 [14]): 1590 nM
Activity (NCI-H522 [15]): Active
Activity (TK-10): inactive
Activity (SR): inactive
CC50 (U2OS): 7260 nM
Activity (UO-31 [16]): -95%
Activity (K562): inactive
Activity (RPMI-8226): inactive
Activity [17]: 0.18
Activity (NCI/ADR-RES): inactive
Activity (SN12C): inactive
Activity (786-0 [18]): -95%
CC50 (MDA-MB-231): 230 nM
Activity (ACHN): inactive
CC50 (NCI-H522 [2]): 170 nM
Activity (SK-OV-3): inactive
Activity (MEF): Toxic
Activity (UO-31 [19]): inactive
Activity (RXF 393): inactive
Activity (MOLT-4): inactive
Activity (IGROV-1): -95%
CC50 (HT-1080 [5]): 140 nM
Activity (NCI-H522 [20]): Active
Activity (NCI-H522 [21]): 60%
inhibition [22]: inactive
inhibition [23]: Active

C#CCCC(=O)Nc1ccc(C(=O)c2ccc(NC(=O)CO/N=C3\CC(c4csc(C#C)n4)=C(C)C3O)cc2)cc1 (stereo not drawn)
CC50 (MDA-MB-231): 1330 nM
Activity (NCI-H522 [24]): inactive
CC50 (NCI-H522 [2]): 2600 nM
viability at 7.8 µM (NCI-H522 [25]): 45%
CC50 (HT-1080 [5]): 1200 nM
